Reference: patent US20080200492A1, “METHODS FOR THE TREATMENT OF ALCOHOL ABUSE, ADDICTION AND DEPENDENCY” (priority 2006, published 2008)

System: alcohol preferring rats
Test: Alcohol Preferring Rats In Vivo Model, acute oral dosing, two-bottle choice
Design: species or system rat
Settings: for Alcohol Intake / Alcohol Preference: mean ± S.E.M., N = 14
Procedure: Adult male selectively-bred alcohol preferring rats (N=14) were used. This particular strain of alcohol drinking rat has been characterized and have been widely used to study the effects of different compounds on voluntary alcohol intake (Farren et al., 2000; Rezvani et al, 1990, 1991, 1992a, 1992b, 1999, 2000, 2003; Murphy et al, 1988; Overstreet et al., 2003, 1999; Li and McBride, 1990). Rats were housed individually in approved cages under a constant room temperature of 22+1° C. and 12:12 light-dark cycle (8:00-20:00, dark). Animal were fed Agway Prolab Rat/Mouse/Hamster 3000 formula and water ad libitum.
Alcohol intake was determined using the standard two-bottle choice method utilized in our and other laboratories for many years (Murphy et al. 1988; Rezvani et al. 1990, 1991, 1993, 1995, 1997, Rezvani and Grady, 1994, Rezvani et al., 1993). Animals were first given free access to water in a graduated Richter tube for 2 days. Next, they were given access to only a solution of 10% (v/v) ethanol for 3 consecutive days. During this period animals became accustomed to drinking from Richter tubes and to the taste and pharmacological effects of alcohol. Thereafter, they were given free access to both water and a solution of 10% alcohol for at least 4 consecutive weeks and throughout of the period of study. Rats had free access to food. Water and alcohol intake were recorded at 6 and 24 hour after the treatment, whereas food intake was measured at 24 hour. Animals' body weights were measured the day of the treatment and the day after.
After establishment of stable baseline for alcohol, food, and water intake, rats were administered (gavage) at 9:30 a.m. either with the vehicle or the compound of formula (I) at one of four doses (1,3,10 and 30 mg/kg) using a cross-over design with random assignment. To be able to compare the efficacy of the compound of formula (I) on alcohol intake naltrexone was included as a positive control. The same rats were given an oral dose of 20 mg/kg naltrexone. All animals will receive all treatments in a random order. The interval between treatments was at least 1 week. Alcohol and water intake were recorded 6 and 24 h after the drug administration and food intake was recorded at 24 hr. The volume of the drug administration was 6 ml/kg.
The results at 6 and 24 hours post-dosing are presented in Tables 3 and 4 below, as means ±SEM. Alcohol intake (g/kg) was calculated by multiplying the volume of alcohol consumed in ml by 10% and 0.7893 (ethanol density)/body weight in kg. Alcohol preference, expressed as a percentage, was calculated as follows (volume of alcohol consumed in ml/total fluid intake in ml)×100 (Rezvani and Grady, 1994; Rezvani et al., 1997). Statistical differences between drug-treated and control groups were determined by using ANOVA with repeated measures. Each treatment was compared with the corresponding vehicle value.

[1] = 1 mg/kg p.o., 6 hrs post-dosing
[2] = 1 mg/kg p.o., 24 hrs post-dosing
[3] = 3 mg/kg p.o., 6 hrs post-dosing
[4] = 3 mg/kg p.o., 24 hrs post-dosing
[5] = 10 mg/kg p.o., 6 hrs post-dosing
[6] = 10 mg/kg p.o., 24 hrs post-dosing
[7] = 30 mg/kg p.o, 6 hrs post-dosing
[8] = 30 mg/kg p.o, 24 hrs post-dosing
[9] = 20 mg/kg p.o., 6 hrs post-dosing
[10] = 20 mg/kg p.o., 24 hrs post-dosing

For `Cc1cccc2cccc(CN3CCC4(CC3)C(=O)N(C[C@H](O)CN)CN4c3ccc(F)cc3)c12` [Cmpd (I-A), 3-(3-amino-2-(R)-hydroxy-propyl)-1-(4-fluoro-phenyl)-8-(8-methyl-naphthalen-1-ylmethyl)-1,3,8-triazaspiro[4.5]decan-4-one], the “Alcohol Intake” value [1] was 1.85 ± 0.234 g/kg, the “Alcohol Preference” value [1] was 75.1 ± 5.60% and the “Alcohol Intake” value [2] was 4.95 ± 0.389 g/kg. The “Alcohol Preference” value [2] was 80.4 ± 4.68%, the “Alcohol Intake” value [3] was 1.53 ± 0.184 g/kg and the “Alcohol Preference” value [3] was 61.6 ± 6.19%. The “Alcohol Intake” value [4] was 4.43 ± 0.339 g/kg, the “Alcohol Preference” value [4] was 68.9 ± 4.87% and the “Alcohol Intake” value [5] was 1.59 ± 0.238 g/kg. The “Alcohol Preference” value [5] was 62.4 ± 6.33%, the “Alcohol Intake” value [6] was 4.73 ± 0.351 g/kg and the “Alcohol Preference” value [6] was 71.7 ± 3.56%. For the same compound, the “Alcohol Intake” value [7] was 0.905 ± 0.198 g/kg, the “Alcohol Preference” value [7] was 46.7 ± 8.20% and the “Alcohol Intake” value [8] was 3.16 ± 0.582 g/kg. The “Alcohol Preference” value [8] was 50.1 ± 7.77%, the “Alcohol preference compared with vehicle” value (30 mg/kg, both 6 hours and 24 hours post-dosing) was “reduced alcohol preference” and the “Alcohol intake compared with vehicle” value (acute oral administration of 3, 10 and 30 mg/kg, at 6 hr) was “significantly reduced alcohol intake”. The “Alcohol intake compared with vehicle” value (at 24 hr, only "the mg/kg dose" (dose figure missing)) was “statistically significantly (p<0.0002) in reducing alcohol intake” and the “Alcohol preference compared with vehicle” value (other doses (1, 3, 10 mg/kg), 6 hours and 24 hours post-dosing) was “did not significantly affect alcohol preference”.
With `O=C1CC[C@@]2(O)[C@H]3Cc4ccc(O)c5c4[C@@]2(CCN3CC2CC2)[C@H]1O5` [Naltrexone, naltrexone, reference compound] the “Alcohol Intake” value [9] was 1.19 ± 0.25 g/kg, the “Alcohol Preference” value [9] was 46.8 ± 7.91% and the “Alcohol Intake” value [10] was 3.64 ± 0.545 g/kg. The “Alcohol Preference” value [10] was 58.8 ± 6.77%, the “Alcohol intake compared with vehicle” value (naltrexone 20 mg/kg oral, 24 hr post-dosing) was “remained statistically significantly (p<0.0028) in reducing alcohol intake” and the “Alcohol preference compared with vehicle” value (naltrexone 20 mg/kg oral, both 6 hours and 24 hours post-dosing) was “reduced alcohol preference”.
